# Source: patent EP2671597A1, “Chimeric constructs between glioma-homing peptide and cell-penetrating peptides, gHoPe2” (Cepep III AB, priority 2012, dated 2013)
# Entries after “also recorded” stand apart in the source; their conditions may differ. Ends that are not written are not given here. FAM = 5(6)-carboxyfluorescein
# Tests used:
# U87 cells [1] = assay: LDH leakage assay (membrane integrity); type: cell-based, human; details: FAM-labelled peptides, up to 20 µM, 48h, compared to 0.2% of Triton
# Experimental: Membrane integrity was evaluated using LDH leakage assay (SIGMA-ALDRICH™ St. Louise, MO, USA), which measures lactate dehydrogenase release. Briefly, 1×10^4 cells were seeded 24h in 96-well plates before treatment with the peptides or peptide-drug conjugates, which was conducted in complete medium for 48h. Thereafter, LDH leakage was assessed according to the manufacturer's protocol. Untreated cells were defined as no leakage and 100% leakage was defined as total LDH release by lysing cells in 0.2% Triton X-100 in HKR buffer.
# (§1) All figures are presented as mean ± SEM. The cell uptake data represent three independent experiments performed in duplicate. For toxicity measurements, a decrease in viability was considered significant at p <.001 using ANOVA Dunnett's multiple comparison test.
# human glioma cells (U87) = assay: Cellular internalization by confocal microscopy; type: cell-based; details: 10 µM, 30 min incubation (Figure 3)
# Experimental: (§2) U87 cells (1×10^4) were seeded in Lab-Tek® 8-well chamber slides to reach 50% confluence one day prior to experimentation. After 30 min of incubation with the peptide constructs in complete medium at 37°C, cells were washed four times with PBS, followed by the addition of trypan blue (0.1 %) in OptiMEM and examined using Olympus IX81 inverted microscope equipped with FluoView 1000 confocal system using a 60x water-immersion and 100x oil-immersion objectives and excitation at 488 nm (fluorescein). For the membrane association experiments the cells were incubated with FAM-labeled peptide for 30 min at 37°C in complete medium. After the incubation period, cells were washed once with PBS and re-suspended in fresh OptiMEM medium.
# (§3) The cellular uptake of the chimeric peptides gHoPe2 and gHoPe3 in U87 cells, using confocal microscopy and flow cytometry is depicted in Figures 3 and 4, respectively.
# U87 cells [2] = assay: MTS cell viability (proliferation) assay; type: cell-based, human; details: FAM-labelled peptides, up to 20 µM, 24h
# Experimental: Long-term toxicity was evaluated using an MTS proliferation assay (Promega, Madison, WI, USA). The MTS assay measures the activity of mitochondrial dehydrogenases to convert tetrazolium salts into formazan. Briefly, 1×10^4 cells were seeded 24h in 96-well plates before treatment with the peptides or peptide-drug conjugates, which was conducted in complete medium for 24h. Thereafter, MTS proliferation assay was used according to the manufacturer's protocol. Untreated cells were defined as 100% viable.
# as §1
# subcutaneous U87 tumors = assay: Antitumour effect in vivo, tumour growth; set-up: species or system mice; details: 8.3 mg/kg (369 µM, 100 µl) i.v. twice a week; Tukey post-hoc p<.05 (Figure 13)
# Experimental: Localization of the peptide vectors was assessed postmortem after injecting FAM-labeled peptides in homozygous female nude mice (C.Cg/AnNTac-Foxn1nu, Taconic), bearing tumor xenografts either intracranially or subcutaneously. 8×10^5 U87 cells were resuspended in 100 µl (s.c tumor model) or in 5 µl (intracranial tumor model) of fresh DMEM medium, without serum and antibiotics. The xenografting was performed by implanting the cell suspension subcutaneously or intracranially into one of the striatums (stereotaxic coordinates A=+1, L=+2, V=+3.5). At the appearance of the first signs of tumor growth (for the subcutaneous tumors: tumor size of approx 300 mm^3; for the intracranial tumors: the first sign is usually weight loss), mice were injected i.v. (via tail vein) with the peptide constructs. For the biodistribution, 100 µl of 200 µM FAM-labeled peptide suspension (in saline) was used. This represents a dose of 4 mg/kg for a mouse of 20 g. […]
# The tumor treatments were performed using 1 mg/kg doxorubicin (369 µM, 100 µl, for an animal of 20 g) and an equivalent dose (8.3 mg/kg) of dox-gHoPe2 (369 µM, 100 µl) i.v. twice a week. The subcutaneous tumor dimensions were measured using calibre; tumor volume was calculated as (length × width^2)/2.
# The efficacy of dox-gHoPe2 was assessed in the model of subcutaneous U87 tumors. […]
# subcutaneous U87 tumor = assay: Biodistribution of FAM-labelled peptides, subcutaneous tumour model; type: in vivo, mice; details: for localization in tumor tissue: i.v., 3 h before tissue collection, FAM fluorescence of cryosections (Figure 5)
# Experimental: (§4) Localization of the peptide vectors was assessed postmortem after injecting FAM-labeled peptides in homozygous female nude mice (C.Cg/AnNTac-Foxn1nu, Taconic), bearing tumor xenografts either intracranially or subcutaneously. 8×10^5 U87 cells were resuspended in 100 µl (s.c tumor model) or in 5 µl (intracranial tumor model) of fresh DMEM medium, without serum and antibiotics. The xenografting was performed by implanting the cell suspension subcutaneously or intracranially into one of the striatums (stereotaxic coordinates A=+1, L=+2, V=+3.5). At the appearance of the first signs of tumor growth (for the subcutaneous tumors: tumor size of approx 300 mm^3; for the intracranial tumors: the first sign is usually weight loss), mice were injected i.v. (via tail vein) with the peptide constructs. For the biodistribution, 100 µl of 200 µM FAM-labeled peptide suspension (in saline) was used. This represents a dose of 4 mg/kg for a mouse of 20 g. At 3h post-injection, the animals were anesthetized and intracardially perfused with 50 ml of PBS, followed by 50 ml of fixation solution (4% w/v paraformaldehyde in PBS, pH 7.4). Tissues were collected, postfixed for 2h in the same fixation solution, cryoprotected in sucrose (10% for 24h, followed by 30% for 1 week, at 4°C), snap frozen in 2-methylbutane (AppliChem) kept on dry ice. The tissues were cut on a cryostat with a thickness of 10-15 µm, counterstained with DAPI (AppliChem) and mounted using Vectashield (Vector Labs) mounting media.
# (§5) The biodistribution of FAM-labeled gHoPe2 was determined in two mouse tumour models. FAM-labeled gHo and gHoPe2 were injected 3h before tissue collection. The circulation time of 3 h was chosen from initial pilot experiments with 1 h, 3h, 6h and 24h circulation times, where the highest fluorescence in the tumor occurred at 3h.
# Firstly, a mouse model of subcutaneous U87 tumor was used. […] We detected no FAM-labeled gHo in tumor tissue and none of the peptides in the (intact) brain tissue, the kidney, and liver.
# [3] = tested on: intracranial glioblastoma; assay: Biodistribution of FAM-labelled peptides, intracranial tumour model; type: in vivo, mice; details: i.v.; for uptake in lungs, heart, spleen, muscle and skin: animals with intracranial tumours, 3 h (Figure 8); for localization in intracranial tumour: 3 h before tissue collection, FAM fluorescence (Figures 6, 7)
# Experimental: as §4, §5
# Secondly, biodistribution of FAM-labeled gHo and gHoPe2, as well as FAM-labeled pVEC and gHoPe3 was assessed in a mouse model of intracranial glioblastoma. To estimate the general distribution of gHoPe2 within the glioma-containing brain, the whole coronal section was reconstructed from single microscopic images.
# human glioma cells = assay: Cellular uptake by flow cytometry (FACS); type: cell-based; details: 30 min incubation (Figure 4)
# Experimental: U87, HEK and Hela cells (5×10^4) were seeded 24 h prior to experiments into 24-well plates. Cells were incubated for 30 min in complete media after treatment with the peptide constructs. Thereafter, cells were washed four times with PBS and once with trypsin, suspended in ice-cold PBS and flow cytometry analysis was carried out with a BD LSR II flow cytometer (BD Biosciences, San Jose, CA, USA) equipped with a 488 nm argon laser and analyzed with FACSDiva software. The filter settings for excitation and emission were 480/530 nm bandpass (FL1) for FITC. Live cells were gated by forward/side scattering from a total of 10000 events.
# as §3
# HeLa cells = assay: Confocal microscopy, association of FAM-labelled targeting peptide with cells; type: cell-based; details: 20 µM, 30 minutes
# Experimental: (§6) The human embryonic kidney 293 cell line (HEK 293) and human glioblastoma-astrocytoma, epithelial-like cell line U87 MG (American Type Culture Collection via LGC, Sweden) and cervical cancer HeLa cells were cultured in Dulbecco's Modified Eagle Medium (DMEM) with L-glutamine. Medium was supplemented with 10% FBS, sodium pyruvate (1 mM), penicillin (100 U/ml), streptomycin (100 µg/ml) and 1% nonessential amino acids (further denoted as complete medium) (PAA Laboratories GmbH, Austria). Cell cultures were cultivated at 37°C in a humidified 5% CO2 incubator.
# as §2, with “OptiMEM medium. […]” for “OptiMEM medium.”
# U87 glioma cells = assay: as above; type: cell-based, human
# Experimental: as §6, §2
# (§7) To confirm binding of the targeting peptide with glioma cells, gHo peptide was labeled with fluorescent marker FAM (see the composition in Table 1) and incubated with U87 glioma cells as well as with two non-neuronal cell lines, HeLa and HEK, for 30 minutes at the room temperature, followed by mild washing of the cells.
# HEK cells = assay: as above; type: cell-based, human; details: 20 µM, 30 minutes
# Experimental: as §6, §2, §7
substance,measurement,setting,value
NHQQQNPHQPPM-LLIILRRRIRKQAHAHSK-NH2 [FAM-gHoPe3],LDH leakage (membrane leakage),U87 cells [1],did not affect cell viability
same,LDH leakage (membrane leakage),U87 cells [1]; listed as gHoPe3,did not induce any significant membrane leakage
same,Cellular internalization,human glioma cells (U87),"exhibited cellular uptake of varying degrees; also recorded: internalized, but to a lesser extent"
same,cell viability (MTS),U87 cells [2],did not affect cell viability
same,cell viability (MTS),U87 cells [2]; listed as gHoPe3,did not induce any toxic effects
XCLLIILRRRIRKQAHAHSK-NHQQQNPHQPPM-NH2 [Dox-gHoPe2],tumor size versus untreated group,subcutaneous U87 tumors,significantly smaller
LLIILRRRIRKQAHAHSK-NHQQQNPHQPPM-NH2 [FAM-gHoPe2],localization in tumor tissue,subcutaneous U87 tumor,localizes in tumours; also recorded: homing
same,circulation time of the highest fluorescence in the tumor,"subcutaneous U87 tumor; initial pilot experiments with 1 h, 3h, 6h and 24h circulation times, tumour model not stated",3 h
same,LDH leakage (membrane leakage),U87 cells [1],did not affect cell viability
same,LDH leakage (membrane leakage),U87 cells [1]; listed as gHoPe2,did not induce any significant membrane leakage
same,Cellular internalization,human glioma cells (U87),exhibited cellular uptake of varying degrees
same,"uptake in lungs, heart, spleen, muscle and skin",[3],No uptake
same,"presence in adjacent intact brain, kidney and liver",[3]; 3 h (Figure 7),not
same,localization in intracranial tumour,[3],localizes in tumours
same,localization in intracranial tumour,[3]; listed as FAM-labelled gHoPe2,global FAM localization in the tumour area
same,localization in intracranial tumour,[3]; listed as gHoPe2,can be seen in the tumor area; also recorded: specific localization
same,localization in the adjacent intact brain,"[3]; whole coronal section, 3 h (Figure 6)",not
same,cell viability (MTS),U87 cells [2],did not affect cell viability
same,cell viability (MTS),U87 cells [2]; listed as gHoPe2,did not induce any toxic effects
same,cellular uptake,human glioma cells,"highest; also recorded: significantly differed from the uptake values of FAM-gHoPe3 (main effect p<.01, Tukey post hoc) and FAM-gHo (p<.001)"
"NHQQQNPHQPPM-NH2 [gHo, glioma-homing targeting peptide]",binding to HeLa cells,HeLa cells,not and did not bind
same,LDH leakage (membrane leakage),U87 cells [1],did not induce any significant membrane leakage
same,Cellular internalization,human glioma cells (U87),did not internalize
same,"uptake in lungs, heart, spleen, muscle and skin",[3],No uptake
same,localization in intracranial tumour,[3],not
same,Association of the targeting peptide gHo with glioma cells (U87),U87 glioma cells; 20 µM (Figure 2),associated
same,association of gHo with U87,"U87 glioma cells; FAM-labelled peptide, all tested concentrations 1-20 µM, 30 minutes, mild washing",confirmed association
same,binding to HEK cells,HEK cells,not and did not bind
same,cellular uptake,human glioma cells,did not internalize
"LLIILRRRIRKQAHAHSK-NH2 [FAM-pVEC] ({FAM}-LLIILRRRIRKQAHAHSK-NH2) [pVEC N-terminally labelled with 5(6)-carboxyfluorescein, reference compound]",LDH leakage (membrane leakage),U87 cells [1],did not affect cell viability
same,Cellular internalization,human glioma cells (U87),exhibited cellular uptake of varying degrees
same,cell viability (MTS),U87 cells [2],did not affect cell viability
same,cellular uptake,human glioma cells,highest
"LLIILRRRIRKQAHAHSK-NH2 [pVEC, 18-amino acid cell-penetrating peptide derived from murine vascular endothelial-cadherin, reference compound]",LDH leakage (membrane leakage),U87 cells [1],did not induce any significant membrane leakage
same,Cellular internalization,human glioma cells (U87),internalized very efficiently
same,cell viability (MTS),U87 cells [2],did not induce any toxic effects
"NHQQQNPHQPPM-NH2 [FAM-gHo] ({FAM}-NHQQQNPHQPPM-NH2; also: FAM label, place not given here) [gHo N-terminally labelled with 5(6)-carboxyfluorescein]",localization in tumor tissue,subcutaneous U87 tumor,detected no
same,Cellular internalization,human glioma cells (U87),no uptake
